Results: paper PMC7619385 (ACS infectious diseases, 2025)
Structures can show the parent of a compound that is named as a salt. Where two headings read alike, the source gives them in different places.

Molecular target: T1, LmxCLK1 (Leishmania mexicana, UniProt E9AMP2)
T1 sequence (E9AMP2 1-422): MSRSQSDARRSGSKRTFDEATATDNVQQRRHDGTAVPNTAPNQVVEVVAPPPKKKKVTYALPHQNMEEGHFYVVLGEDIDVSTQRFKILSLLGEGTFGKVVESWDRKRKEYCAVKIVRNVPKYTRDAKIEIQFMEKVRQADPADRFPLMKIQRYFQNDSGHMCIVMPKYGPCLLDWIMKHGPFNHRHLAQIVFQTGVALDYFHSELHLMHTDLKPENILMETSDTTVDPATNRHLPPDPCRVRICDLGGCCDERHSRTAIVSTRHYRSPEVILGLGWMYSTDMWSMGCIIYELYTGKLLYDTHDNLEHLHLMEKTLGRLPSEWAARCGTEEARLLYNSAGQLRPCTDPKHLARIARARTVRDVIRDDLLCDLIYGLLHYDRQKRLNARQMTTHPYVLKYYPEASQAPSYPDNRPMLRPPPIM
Assay: biochemical
Format: binding

[1] = DSF, 10 µM compound, 2 µM LmxCLK1, Run 1
[2] = DSF, 10 µM compound, 2 µM LmxCLK1, Run 2
[3] = DSF, 10 µM compound, 2 µM LmxCLK1, mean of two runs
[4] = DSF, 10 µM compound, 2 µM LmxCLK1, Run 1, read-out: ΔTm Run 1
[5] = DSF, 10 µM compound, 2 µM LmxCLK1, Run 2, read-out: ΔTm Run 2
[6] = DSF, 10 µM compound, 2 µM LmxCLK1, mean of two runs, read-out: ΔTm Average

| Molecule | ΔTm Run 1 [1] [°C] | ΔTm Run 2 [2] [°C] | ΔTm Average [3] [°C] | ΔTm at 10 µM [4] [°C] | ΔTm at 10 µM [5] [°C] | ΔTm at 10 µM [6] [°C] | other results |
| --- | --- | --- | --- | --- | --- | --- | --- |
| Cc1cc(C(C)Nc2ccccc2)c2nc(N3CCOCC3)cc(=O)n2c1 (stereo not drawn) [TGX-221] | 0.5 | 0.3 | 0.4 |  |  |  |  |
| CS(=O)(=O)CCNCc1ccc(-c2ccc3ncnc(Nc4ccc(OCc5cccc(F)c5)c(Cl)c4)c3c2)o1.Cc1ccc(S(=O)(=O)O)cc1.Cc1ccc(S(=O)(=O)O)cc1 [Lapatinib (GW-572016) Ditosylate] | 0.3 | 0.0 | 0.1 |  |  |  |  |
| Nc1ccc(-c2ccc3ncc4ccc(=O)n(-c5cccc(C(F)(F)F)c5)c4c3c2)cn1 [Torin 2] | -0.1 | 0.0 | 0.0 |  |  |  |  |
| O=C(Cc1ccc(-c2ccc(OCCN3CCOCC3)cc2)cn1)NCc1ccccc1 [KX2-391] |  |  |  |  |  |  | ΔTm Average: 0.1 °C; ΔTm Run 1: 0.2 °C; ΔTm Run 2: 0 °C |
| COc1ncc(-c2ccc3nccc(-c4ccnnc4)c3c2)cc1NS(=O)(=O)c1ccc(F)cc1F [GSK2126458 (GSK458)] | -0.2 | -0.3 | -0.3 |  |  |  |  |
| COCCNCc1ccc(-c2cc3nccc(Oc4ccc(NC(=S)NC(=O)Cc5ccc(F)cc5)cc4F)c3s2)nc1 [MGCD-265] |  |  |  | 0 | -0.1 | -0.1 |  |
| CC(C)(C)c1cc(C=C(C#N)C#N)cc(Br)c1O [AG-1024] | 0.0 | -0.2 | -0.1 |  |  |  |  |
| CCNC(=O)Nc1ccc(-c2nc3c(c(N4CCOC[C@@H]4C)n2)CCN(C2COC2)C3)cc1 [GDC-0349] |  |  |  | -0.1 | -0.1 | -0.1 |  |
| Cn1cc(-c2ccc3nnc(Sc4ccc5ncccc5c4)n3n2)cn1 [SGX-523] |  |  |  | -0.1 | -0.2 | -0.1 |  |
| CSc1cccc(Nc2ncc3cc(-c4c(Cl)cccc4Cl)c(=O)n(C)c3n2)c1 [PD173955] | 0.0 | -0.3 | -0.1 |  |  |  |  |
| O=c1ncn2nc(Sc3ccc(F)cc3F)ccc2c1-c1c(Cl)cccc1Cl [VX-745] |  |  |  | 0.4 | 0.2 | 0.3 |  |
| N#C/C(=C(/N)Sc1ccc(N)cc1)c1ccccc1C(F)(F)F [SL-327] | -0.2 | -0.2 | -0.2 |  |  |  |  |
| Cl.Cl.O=S(=O)(NCCNC/C=C/c1ccc(Br)cc1)c1cccc2cnccc12 [H 89 2HCl] | 0.2 | -0.1 | 0.0 |  |  |  |  |
| C=CC(=O)Nc1cccc(Nc2nc(Nc3ccc(N4CCN(C(C)=O)CC4)cc3OC)ncc2C(F)(F)F)c1 [CO-1686 (AVL-301)] | 0.0 | -0.3 | -0.1 |  |  |  |  |
| CC(C)(C)NS(=O)(=O)c1cncc(-c2cc(F)c3nc(N)nn3c2)c1 [CZC24832] |  |  |  | 0 | -0.2 | -0.1 |  |
| Cc1cc(NC(=O)c2cccc(NC(=O)/C=C/CN(C)C)c2)ccc1Nc1nccc(-c2cccnc2)n1 [JNK-IN-8] |  |  |  | 0.2 | -0.5 | -0.1 |  |
| Cn1cc(-c2ccc3nnc(C(F)(F)c4ccc5ncccc5c4)n3n2)cn1 [JNJ-38877605] |  |  |  |  |  |  | ΔTm Average: -0.3; ΔTm Run 1: -0.1; ΔTm Run 2: -0.4 |
| O=C(NCCCNc1nc(Nc2cccc(NC(=O)N3CCCC3)c2)ncc1I)c1cccs1 [BX-795] |  |  |  | -0.1 | 0.4 | 0.2 |  |
| Cn1cc(-c2ccc3ncc(Cc4ccc5ncccc5c4)n3n2)cn1 [NVP-BVU972] | 0.3 | 0.0 | 0.2 |  |  |  |  |
| C[C@@H](Oc1cc(-n2cnc3ccc(CN4CCN(C)CC4)cc32)sc1C(N)=O)c1ccccc1C(F)(F)F [GSK461364] |  |  |  | 0.6 | 0.1 | 0.4 |  |
| CNc1nc(Nc2cn(C(C)(C)C#N)nc2C)ncc1C(F)(F)F [GNE-0877] |  |  |  | -0.1 | -0.2 | -0.1 |  |
| Cc1ccc(-c2nn(C(C)(C)C)c3ncnc(N)c23)cc1 [PP1] |  |  |  |  |  |  | ΔTm Average: 0 °C; ΔTm Run 1: 0.2 °C; ΔTm Run 2: -0.2 |
| Cc1cn(-c2cc(NC(=O)c3ccc(C)c(Nc4nccc(-c5cccnc5)n4)c3)cc(C(F)(F)F)c2)cn1 [Nilotinib (AMN-107)] | 0.0 | 0.0 | 0.0 |  |  |  |  |
| CCCS(=O)(=O)Nc1ccc(F)c(C(=O)c2c[nH]c3ncc(Cl)cc23)c1F [PLX-4720] |  |  |  | -0.3 | -0.1 | -0.2 |  |

| Molecule | ΔTm Run 1 [1] [°C] | ΔTm Run 2 [2] [°C] | ΔTm Average [3] [°C] | ΔTm at 10 µM [4] [°C] | ΔTm at 10 µM [5] [°C] | ΔTm at 10 µM [6] [°C] | other results |
| --- | --- | --- | --- | --- | --- | --- | --- |
| COc1ccc(S(=O)(=O)N(CCO)c2ccccc2CN(C)C/C=C/c2ccc(Cl)cc2)cc1.O=P(O)(O)O [KN-93 Phosphate] | 0.1 | -0.5 | -0.2 |  |  |  |  |
| C[C@@H](N)[C@H]1CC[C@H](C(=O)Nc2ccncc2)CC1.Cl.Cl [Y-27632 2HCl] | 0.1 | 0.1 | 0.1 |  |  |  |  |
| CN(C)CCOc1ccc(-c2nc(-c3ccncc3)c(-c3ccc4c(c3)CC/C4=N\O)[nH]2)cc1 [SB590885] |  |  |  | -0.1 | -0.4 | -0.2 |  |
| CCc1cccc(CC)c1NC(=O)N1Cc2n[nH]c(NC(=O)c3ccc(N4CCN(C)CC4)cc3)c2C1 [PHA-680632] |  |  |  | 0.7 | 0.6 | 0.6 |  |
| Cc1[nH]c(/C=C2\C(=O)Nc3ccc(S(=O)(=O)Cc4c(Cl)cccc4Cl)cc32)c(C)c1C(=O)N1CCC[C@@H]1CN1CCCC1 [PHA-665752] |  |  |  | 0.1 | 0.1 | 0.1 |  |
| Cc1ccc(F)c(NC(=O)Nc2ccc(-c3cccc4[nH]nc(N)c34)cc2)c1 [Linifanib (ABT-869)] | 0.3 | 0.6 | 0.4 |  |  |  |  |
| PHT-427 | 0.4 | 0.3 | 0.3 |  |  |  |  |
| CNC(=O)c1cc(Oc2ccc(NC(=O)Nc3cc(C(C)(C)C)nn3-c3ccc4ncccc4c3)c(F)c2)ccn1 [DCC-2036 (Rebastinib)] | -0.2 | -0.4 | -0.3 |  |  |  |  |
| COc1cc2ncnc(Nc3cccc(Cl)c3)c2cc1OC [AG-1478 (Tyrphostin AG-1478)] | 0.1 | 0.3 | 0.2 |  |  |  |  |
| CCCCOc1c(C(=O)c2c(F)cc(C)cc2F)c[nH]c2nncc1-2 [BMS-265246] |  |  |  | -0.1 | -0.3 | -0.2 |  |
| [H]/N=C(/N)N/C(=N/[H])NCCc1ccccc1 [Phenformin HCl] |  |  |  | 0 | -0.4 | -0.2 |  |
| Cc1c(NC(=O)c2ccc(C(C)(C)C)cc2)cccc1-c1cn(C)c(=O)c(Nc2ccc(C(=O)N3CCOCC3)cc2)n1 [CGI1746] |  |  |  | 0 | -0.4 | -0.2 |  |
| Cc1cnc(Nc2ccc(N3CCN(C)CC3)cc2)nc1Nc1cccc(S(=O)(=O)NC(C)(C)C)c1 [TG101209] | 0.2 | -0.3 | 0.0 |  |  |  |  |
| Cc1nc(NC(=O)N2CCC[C@H]2C(N)=O)sc1-c1ccnc(C(C)(C)C(F)(F)F)c1 [BYL719] |  |  |  | 0.1 | 0.2 | 0.2 |  |
| Cc1cc(Nc2ncc(Cl)c(Nc3ccccc3S(=O)(=O)C(C)C)n2)c(OC(C)C)cc1C1CCNCC1 [LDK378] |  |  |  | 0.4 | 0 | 0.2 |  |
| N#CC[C@H](C1CCCC1)n1cc(-c2ncnc3[nH]ccc23)cn1 [Ruxolitinib (INCB018424)] |  |  |  | 0.9 | 1.1 | 1 |  |
| N#Cc1c(Oc2ccc(F)c(NC(=O)Cc3cccc(C(F)(F)F)c3)c2)ccc2nc(NC(=O)C3CC3)sc12 [TAK-632] | 0.2 | 0.1 | 0.1 |  |  |  |  |
| Cc1ccc(NC(=O)c2cccc(C(C)(C)C#N)c2)cc1Nc1ccc2ncn(C)c(=O)c2c1 [AZ 628] | 0.4 | 0.2 | 0.3 |  |  |  |  |
| COCC(=O)NC/C=C/c1ccc2ncnc(Nc3ccc(Oc4ccc(C)nc4)c(C)c3)c2c1 [CP-724714] |  |  |  | 0.6 | 0.2 | 0.4 |  |
| O=C(Nc1cccc(Cl)c1)Nc1ncc(CCNc2ncnc3ccsc23)s1 [SNS-314 Mesylate] |  |  |  | 3.6 | 8.3 | 5.9 |  |
| CCN(CC)CCCCNc1ncc2cc(-c3cc(OC)cc(OC)c3)c(NC(=O)NC(C)(C)C)nc2n1 [PD173074] |  |  |  | 0.1 | -0.1 | 0 |  |
| O=c1[nH]c2ccc(Cl)cc2c(N[C@@H]2CN3CCC2CC3)c1-c1nc2ccccc2[nH]1 [CHIR-124] | 0.3 | 0.0 | 0.2 |  |  |  |  |
| CNC(=O)c1nn(C)c2c1C(C)(C)Cc1cnc(Nc3ccc(N4CCN(C)CC4)cc3)nc1-2 [Milciclib (PHA-848125)] | 0.1 | -0.2 | 0.0 |  |  |  |  |
| COc1cc2ncnc(Nc3ccc(Cl)cc3F)c2cc1OC [ZM 306416] | 0.2 | 0.0 | 0.1 |  |  |  |  |
